Measurements taken from patent US20100029706A1, “HYDROGENATED PYRIDO[4,3-b]INDOLES FOR THE TREATMENT OF OXIDATIVE STRESS” (Edison Parmaceuticals, Inc. a Delaware Corporation, priority 2008, published 2010).
Where two headings read alike, the source gives them in different places.

Key:
Type in all cases: cell-based
[1] = test system: Human dermal fibroblasts from Friedreich's Ataxia patients; assay: Rescue of BSO-stressed FRDA fibroblasts (Calcein AM viability); details: FRDA fibroblasts GM04078, BSO-stressed, read-out: EC50, protection against Friedreich's ataxia
Procedure: (§1) An initial screen was performed to identify compounds effective for the amelioration of redox disorders. Test samples, 4 reference compounds (Idebenone, decylubiquinone, Trolox and α-tocopherol acetate), and solvent controls were tested for their ability to rescue FRDA fibroblasts stressed by addition of L-buthionine-(S,R)-sulfoximine (BSO), as described in Jauslin et al., Hum. Mol. Genet. 11(24):3055 (2002), Jauslin et al., FASEB J. 17:1972-4 (2003), and International Patent Application WO 2004/003565. […] This specific BSO-mediated cell death can be prevented by administration of antioxidants or molecules involved in the antioxidant pathway, such as α-tocopherol, selenium, or small molecule glutathione peroxidase mimetics. However, antioxidants differ in their potency, i.e. the concentration at which they are able to rescue BSO-stressed FRDA fibroblasts.
MEM (a medium enriched in amino acids and vitamins, catalog no. 1-31F24-I) and Medium 199 (M199, catalog no. 1-21F22-I) with Earle's Balanced Salts, without phenol red, were purchased from Bioconcept. Fetal Calf Serum was obtained from PAA Laboratories. Basic fibroblast growth factor and epidermal growth factor were purchased from PeproTech. Penicillin-streptomycin-glutamine mix, L-buthionine (S,R)-sulfoximine, (+)-α-tocopherol acetate, decylubiquinone, and insulin from bovine pancreas were purchased from Sigma. Trolox (6-hydroxy-2,5,7,8-tetramethylchromane-2-carboxylic acid) was obtained from Fluka. Idebenone was obtained from Chemo Iberica. Calcein AM was purchased from Molecular Probes. Cell culture medium was made by combining 125 ml M199 EBS, 50 ml Fetal Calf Serum, 100 U/ml penicillin, 100 μg/ml streptomycin, 2 mM glutamine, 10 μg/ml insulin, 10 ng/ml EGF, and 10 ng/ml bFGF; MEM EBS was added to make the volume up to 500 ml. A 10 mM BSO solution was prepared by dissolving 444 mg BSO in 200 ml of medium with subsequent filter-sterilization. During the course of the experiments, this solution was stored at +4° C. […]

[2] = test system: human dermal fibroblasts from LHON patients; assay: Rescue of fibroblasts from LHON patients from oxidative stress (as Example A); details: Fibroblast, LHON fibroblasts GM03858, BSO-stressed, read-out: EC50, protection against LHON
Procedure: [Worded in the source for another cell line; this cell line is reported under the same test.] as §1
(§2) Test samples were screened according to the following protocol: • A culture with FRDA fibroblasts was started from a 1 ml vial with approximately 500,000 cells stored in liquid nitrogen. […]
(§3) 100 μl of PBS containing 1.2 μM Calcein AM were then added to each well. […] After that time the PBS was discarded, the plate gently tapped on a paper towel and fluorescence (excitation/emission wavelengths of 485 nm and 525 nm, respectively) was read on a Gemini fluorescence reader. […]

[3] = test system: human dermal fibroblasts from CoQ10 deficient patients harboring a CoQ2 mutation; assay: Rescue of fibroblasts from CoQ10 deficient patients from oxidative stress (similar to Example A); details: BSO-stressed, read-out: EC50, protection against CoQ10
Procedure: [Worded in the source for another cell line; this cell line is reported under the same test.] as §1
Test samples were screened according to the following protocol: • A culture with FRDA fibroblasts was started from a 1 ml vial with approximately 500,000 cells stored in liquid nitrogen. Cells were propagated in 10 cm cell culture dishes by splitting every third day in a ratio of 1:3 until nine plates were available. Once confluent, fibroblasts were harvested. For 54 micro titer plates (96 well-MTP) a total of 14.3 million cells (passage eight) were re-suspended in 480 ml medium, corresponding to 100 μl medium with 3,000 cells/well. The remaining cells were distributed in 10 cm cell culture plates (500,000 cells/plate) for propagation. The plates were incubated overnight at 37° C. in an atmosphere with 95% humidity and 5% CO2 to allow attachment of the cells to the culture plate.
MTP medium (243 μl) was added to a well of the microtiter plate. […]
as §3

[4] = test system: human dermal fibroblasts from Parkinson's Disease patients; assay: Rescue of fibroblasts from Parkinson's Disease patients from oxidative stress (similar to Example A); details: PD fibroblasts AG20439, BSO-stressed, read-out: EC50, protection against Parkinson's
Procedure: [Worded in the source for another cell line; this cell line is reported under the same test.] as §1, §2, §3

SMILES | EC50 ([1]; Homo sapiens) [µM] | EC50 [2] [µM] | EC50 ([3]; Homo sapiens, Fibroblast) [µM] | EC50 ([4]; Homo sapiens, Fibroblast) [µM] | EC50 [1] [µM] | EC50 [3] [µM] | EC50 [4] [µM]
CN1CCc2c(c3ccccc3n2Cc2ccccc2)C1 [5-benzyl-2-methyl-2,3,4,5-tetrahydro-1H-pyrido[4,3-b]indole] | 4.26 | 1.2 | 3.35 | 0.93 | – | – | –
Cc1ccc2c(c1)C1CNCCC1N2 (stereo not drawn) [8-methyl-1,3,4,4a,5,9b-tetrahydro-1H-pyrido[4,3-b]indole] | – | – | – | – | 4.1 | 7 | 3.68
Cc1ccc2c(c1)c1c(n2CCc2ccc(C)nc2)CCN(C)C1 [dimebolin, 2,8-dimethyl-5-(2-(6-methylpyridin-3-yl)ethyl)-2,3,4,5-tetrahydro-1H-pyrido[4,3-b]indole] | 1.9 | – | 0.23 | – | – | – | –
